For one test, the target named is hMC1R (Homo sapiens (Human), UniProt Q01726). Nature of the test: Transactivation test: melanocortin receptors (pCRE-Luc luciferase reporter), hMC1R. As to conditions: HEK293 transfected with pCRE-Luc and hMC1R; products tested alone (agonist), 6 h incubation; % activity vs NDP-MSH 10 nM; IA: inactive. Format: cell-based. On the procedure:
(§1) Transactivation Test: Melanocortin Receptors
(§2) HEK293 lines are transfected with the pCRE-Luc and hMC1R, hMC3R, hMC4R or hMC5R vectors. The cells are cultured at 37° C., 5% CO2, in DMEM medium supplemented with 10% of foetal calf serum.
(§3) In the presence of an activator (agonist), the melanocortin receptor will activate the cAMP pathway which, via the CRE-Luc vector, will result in the synthesis of luciferase. After the addition of a lysis buffer containing a luminescent substrate for luciferase, it will be possible to measure the luminescence proportional to the degree of activation or of inhibition of the receptor.
(§4) The products are solubilized at 10 mM in DMSO. They are tested in the form of dose-response at a final DMSO concentration of 0.1%. The range comprising 10 points and one zero begins at 10 μM with 4-fold dilutions. For testing agonists, the products are tested alone. For determining the behaviour of antagonists, the products of interest are tested in the presence of 1 nM NDP-MSH (reference agonist). The cells are seeded at a rate of 5000 cells per well (384 well plate) in serum-free DMEM medium, and incubated overnight at 37° C., 5% CO2.
(§5) The products and the reference ligand (NDP-MSH) are added the following day, and the plates are again incubated for 6 h at 37° C., 5% CO2. After the addition of lysis buffer containing luciferin, the plates are read on a Top-Count instrument. The results are standardized as % activity using the 100% (cells+NDP-MSH at 10 nM) and 0% (cells alone) controls. An EC50 is calculated for each product using the XLFit software. The results are given in nM.

For the next test, the target named is hMC4R (Homo sapiens (Human), UniProt P32245). Kind of test: Transactivation test: melanocortin receptors (pCRE-Luc luciferase reporter), hMC4R. Format: cell-based. The following applies: HEK293 transfected with pCRE-Luc and hMC4R; products tested alone (agonist), 6 h incubation; % activity vs NDP-MSH 10 nM; IA: inactive. On the procedure:
as §1, §2, §3, §4, §5

SMILES strings stand for the structures.

Chain of hMC1R (Q01726 whole entry): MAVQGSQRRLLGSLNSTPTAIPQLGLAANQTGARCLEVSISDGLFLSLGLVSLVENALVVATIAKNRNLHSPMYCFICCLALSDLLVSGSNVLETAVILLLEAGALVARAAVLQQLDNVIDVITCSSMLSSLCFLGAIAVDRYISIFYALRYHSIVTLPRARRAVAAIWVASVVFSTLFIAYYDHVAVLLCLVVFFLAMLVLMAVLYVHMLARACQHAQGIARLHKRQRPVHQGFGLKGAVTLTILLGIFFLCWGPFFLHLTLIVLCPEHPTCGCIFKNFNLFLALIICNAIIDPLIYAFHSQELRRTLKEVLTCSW
Chain of hMC4R (P32245 whole entry): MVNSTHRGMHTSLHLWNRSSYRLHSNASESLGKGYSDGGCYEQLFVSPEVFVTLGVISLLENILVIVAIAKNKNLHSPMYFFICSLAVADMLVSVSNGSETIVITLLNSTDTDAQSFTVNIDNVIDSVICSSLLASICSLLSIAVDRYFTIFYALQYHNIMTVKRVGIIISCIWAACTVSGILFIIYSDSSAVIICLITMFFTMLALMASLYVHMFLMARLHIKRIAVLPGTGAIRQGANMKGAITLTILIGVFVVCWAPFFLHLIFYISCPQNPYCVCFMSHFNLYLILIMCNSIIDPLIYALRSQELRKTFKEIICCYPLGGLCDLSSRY

With `CCCCOC1(c2ccccc2C)CN(C(=O)[C@@H](Cc2ccc(OC)cc2)NC(=O)CCc2[nH]cnc2C)C1` [Compound 41, N-[(R)-2-(3-butoxy-3-o-tolylazetidin-1-yl)-1-(4-methoxybenzyl)-2-oxoethyl]-3-(5-methyl-3H-imidazol-4-yl)propionamide], the values for the EC50 on hMC1R and on hMC4R were 120 nM and 1000 nM, respectively.

Consider `CCCCCC1(C2CCCCC2)CN(C(=O)[C@@H](Cc2ccc(OC)cc2)NC(=O)CCc2c[nH]cn2)C1` [Compound 66, N-[(R)-2-(3-cyclohexyl-3-pentylazetidin-1-yl)-1-(4-methoxybenzyl)-2-oxoethyl]-3-(1H-imidazol-4-yl)propionamide], for which the EC50 on hMC1R and on hMC4R was 250 nM throughout.

As for `CCCCOC1(c2ccccc2C)CN(C(=O)[C@@H](Cc2ccc(OC)cc2)NC(=O)CCC2N=NC(C)=N2)C1` (stereo partly drawn) [Compound 40, N-[(R)-2-(3-butoxy-3-o-tolylazetidin-1-yl)-1-(4-methoxybenzyl)-2-oxoethyl]-3-(5-methyl-3H-[1,2,4]triazol-3-yl)propionamide], the EC50 at hMC1R came out at 8000 nM; on hMC4R, 500 nM.

Consider `CCCCOC1(c2ccccc2C)CN(C(=O)[C@@H](Cc2ccc(OC)cc2)NC(=O)CCc2cn(C)cn2)C1` [Compound 69, N-[(R)-2-(3-Butoxy-3-o-tolylazetidin-1-yl)-1-(4-methoxybenzyl)-2-oxoethyl]-3-(1-methyl-1H-imidazol-4-yl)propionamide], for which the EC50 was 1000 nM at hMC1R and 8000 nM on hMC4R.

Regarding `CCCCOC1(c2ccc(F)cc2)CN(C(=O)[C@H](Cc2ccc(OC)cc2)NC(=O)[C@H](Cc2c[nH]cn2)NC(=O)c2ccccc2)C1` [Compound 8, N-[(S)-1-[(S)-2-[3-butoxy-3-(4-fluorophenyl)azetidin-1-yl]-1-(4-methoxybenzyl)-2-oxoethylcarbamoyl]-2-(1H-imidazol-4-yl)ethyl]benzamide], the EC50 at hMC1R was determined as 120 nM; at hMC4R, 4000 nM.

Consider `CCOC1(c2ccccc2C)CN(C(=O)[C@@H](Cc2ccc(OC)cc2)NC(=O)CCc2c[nH]cn2)C1` [Compound 17, N-[(R)-2-(3-ethoxy-3-o-tolylazetidin-1-yl)-1-(4-methoxybenzyl)-2-oxoethyl]-3-(1H-imidazol-4-yl)propionamide], for which the EC50 at hMC1R stood at 250 nM; at hMC4R, 8000 nM.

As for `CCCCOC1(c2ccccc2C)CN(C(=O)[C@@H](Cc2ccc(OC)cc2)NC(=O)[C@@H](O)Cc2c[nH]cn2)C1` [Compound 71, (S)-N-[(R)-2-(3-Butoxy-3-o-tolylazetidin-1-yl)-1-(4-methoxybenzyl)-2-oxoethyl]-2-hydroxy-3-(1H-imidazol-4-yl)propionamide], the figures for the EC50 at hMC1R and at hMC4R were 60 nM and 4000 nM, respectively.

With `CCCCCC1(c2c(F)cccc2F)CN(C(=O)[C@@H](Cc2ccc(OC)cc2)NC(=O)CCc2c[nH]cn2)C1` [Compound 61, N-[(R)-2-[3-(2,6-difluorophenyl)-3-pentylazetidin-1-yl]-1-(4-methoxybenzyl)-2-oxoethyl]-3-(1H-imidazol-4-yl)propionamide], the EC50 at hMC1R worked out at 120 nM; on hMC4R, 100 nM.

On to `CCCCCC1(c2ccccc2)CN(C(=O)[C@@H](Cc2ccccc2F)NC(=O)CCc2c[nH]cn2)C1` [Compound 57, N-[(R)-1-(2-fluorobenzyl)-2-oxo-2-(3-pentyl-3-phenylazetidin-1-yl)ethyl]-3-(1H-imidazol-4-yl)propionamide], for which the concentration for a half-maximal effect (EC50) at hMC1R is 1000 nM; on hMC4R, 4000 nM.

Take `CCCCOC1(c2ccc(F)cc2)CN(C(=O)[C@@H](Cc2ccccc2)NC(=O)CCC2=NCC=N2)C1` [Compound 34, N-{(R)-1-benzyl-2-[3-butoxy-3-(4-fluoro-phenyl)azetidin-1-yl]-2-oxoethyl}-3-(4H-imidazol-2-yl)propionamide]: the results for the EC50 on hMC1R and at hMC4R were 1000 nM and 2000 nM, respectively.

In the case of `CCCCOC1(c2ccccc2)CN(C(=O)[C@@H](Cc2ccccc2)NC(=O)CCc2c[nH]cn2)C1` [Compound 35, N-[(R)-1-benzyl-2-(3-butoxy-3-phenylazetidin-1-yl)-2-oxoethyl]-3-(1H-imidazol-4-yl)propionamide], the concentration for a half-maximal effect (EC50) came to 500 nM at hMC1R and 2000 nM at hMC4R.

In the case of `CCCCOC1(c2ccc(F)cc2)CN(C(=O)[C@@H](Cc2ccc(OC)cc2)NC(=O)CCc2c[nH]cn2)C1` [Compound 23, N-[(R)-2-[3-butoxy-3-(4-fluorophenyl)azetidin-1-yl]-1-(4-methoxybenzyl)-2-oxoethyl]-3-(1H-imidazol-4-yl)propionamide], the EC50 on hMC1R is 60 nM; on hMC4R, 1000 nM.

As to `COc1ccc(C[C@@H](NC(=O)CCc2nc[nH]c2C)C(=O)N2CC(OCC3CCC3)(c3ccccc3C)C2)cc1` [Compound 79, N-[(R)-2-(3-Cyclobutylmethoxy-3-o-tolylazetidin-1-yl)-1-(4-methoxybenzyl)-2-oxoethyl]-3-(5-methyl-1H-imidazol-4-yl)propionamide], the results for the EC50 at hMC1R and at hMC4R were 15 nM and 1000 nM, respectively.

With `COc1ccc(C[C@H](NC(=O)[C@H](Cc2c[nH]cn2)NC(=O)c2ccccc2)C(=O)N2CC(O)(C3CCCCC3)C2)cc1` [Compound 7, N-[(S)-1-[(S)-2-(3-cyclohexyl-3-hydroxyazetidin-1-yl)-1-(4-methoxybenzyl)-2-oxoethylcarbamoyl]-2-(1H-imidazol-4-yl)ethyl]benzamide], the EC50 at hMC1R was found to be 500 nM; at hMC4R it was 4000 nM.

`CC#CCOC1(c2ccccc2C)CN(C(=O)[C@@H](Cc2ccc(OC)cc2)NC(=O)CCc2nc[nH]c2C)C1` [Compound 76, N-[(R)-2-(3-But-2-ynyloxy-3-o-tolylazetidin-1-yl)-1-(4-methoxybenzyl)-2-oxoethyl]-3-(5-methyl-1H-imidazol-4-yl)propionamide]: the EC50 worked out at 30 nM at hMC1R and 4000 nM at hMC4R.

In the case of `CCCC(=O)OC1(c2ccc(F)cc2)CN(C(=O)[C@H](Cc2ccc(OC)cc2)NC(=O)[C@H](Cc2c[nH]cn2)NC(=O)c2ccccc2)C1` [Compound 6, 1-[(S)-2-[(S)-2-benzoylamino-3-(1H-imidazol-4-yl)propionylamino]-3-(4-methoxyphenyl)propionyl]-3-(4-fluorophenyl)azetidin-3-yl ester of butyric acid], the EC50 worked out at 2000 nM at hMC1R and 8000 nM at hMC4R.

With `CCCCCC1(c2cc(F)ccc2F)CN(C(=O)[C@@H](Cc2ccc(OC)cc2)NC(=O)CCc2c[nH]cn2)C1` [Compound 60, N-[(R)-2-[3-(2,5-difluorophenyl)-3-pentylazetidin-1-yl]-1-(4-methoxybenzyl)-2-oxoethyl]-3-(1H-imidazol-4-yl)propionamide], the EC50 stood at 120 nM at hMC1R and 100 nM at hMC4R.

Turning to `CCCCCC1(c2ccccc2)CN(C(=O)[C@@H](Cc2ccccc2)NC(=O)CCc2c[nH]cn2)C1` [Compound 47, N-[(R)-1-benzyl-2-oxo-2-(3-pentyl-3-phenylazetidin-1-yl)ethyl]-3-(1H-imidazol-4-yl)propionamide], the figures for the EC50 at hMC1R and on hMC4R were 500 nM and 4000 nM, respectively.

For `CCCCOC1(c2ccc(F)cc2)CN(C(=O)[C@@H](Cc2cccc(F)c2)NC(=O)CCc2c[nH]cn2)C1` [Compound 31, N-[(R)-2-[3-butoxy-3-(4-fluorophenyl)azetidin-1-yl]-1-(3-fluorobenzyl)-2-oxoethyl]-3-(1H-imidazol-4-yl)propionamide], the EC50 on hMC1R worked out at 500 nM; on hMC4R, 4000 nM.

By EC50 is commonly meant the concentration that produces a half-maximal response. Low readings indicate greater potency, high ones weaker potency.

The values are drawn from patent publication US9630949B2, “Oxoazetidine derivatives, process for the preparation thereof and use thereof in human medicine and in cosmetics” (GALDERMA RESEARCH & DEVELOPMENT, priority 2008, dated 2017).
